According to patent publication US8853452B2, “Compounds, their syntheses, compositions, and methods to treat cancer” (The Administrators of the Tulane Educational Fund, priority 2009, dated 2014):
pIC50: −log10 of the molar value. Read-outs that look alike come from different tables or passages of the source.

Assays:
MCF-7 cells [1] = assay: Apoptosis ELISA assay (Cell Death Detection ELISA, Roche); type: cell-based, Human; conditions: double the IC50 concentration (ceramide 8.3 μM, II-3 9.4 μM)
Description: The induction of apoptosis by compounds was assayed using the nucleosome ELISA kit (Roche). The kit quantified formation of cytoplasmic histone-associated oligonucleosome DNA fragments resulting from apoptosis. […] The induction of apoptosis was determined by the amount of nucleosomes in the cytoplasm per the manufacturer's protocol. The values are the mean±SE of three independent experiments.
The ability of compound II-3 to induce apoptosis in MCF-7 cells was tested. Using a Cell Death Detection ELISA (Roche) to assess apoptosis, IC50 was measured for compound II-3 and C8-ceramide.

MDA-MB-231 cells [2] = assay: Clonogenic survival assay; type: cell-based, Human; conditions: Table 2, 0.1 μM-20 μM for 10 days, read-out: MDA-MB-231 (IC50), clonogenic survival
Description: (§1) Human cancer cell lines derived from breast, MCF-7, endocrine-resistant MDA-MB-231, and chemoresistant MCF-7TN-R were cultured in 75 cm^2 culture flasks in DMEM (Invitrogen, Co.) supplemented with 10% FBS (Life Technologies, Inc., Gaithersburg, Md.), basic minimum MEM essential (50×, Invitrogen Co.) and MEM non-essential (100×, Invitrogen, Co.) amino acids, sodium pyruvate (100× Invitrogen Co.), antimicotic-antibiotic (10,000 U/mL penicillin G sodium; 10,000 μg/mL streptomycin sulphate; 25 μg/mL amphotericin B as Fungizone®), and human recombinant insulin (4 mg/mL Invitrogen Co). Culture flasks were maintained in a tissue culture incubator in a humidified atmosphere of 5% CO2 and 95% air at 37° C.
(§2) MCF-7, MDA-MB-231, or MCF-7TN-R cells were plated in 6-well plates at 1000 cells per well. Twenty-four hours later, cells were treated with varying concentrations of the compound and then monitored microscopically for colony growth. Ten days later the cells were fixed with 3% glutaraldehyde. Following fixation for 15 min, the plates were washed and stained with a 0.4% solution of crystal violet in 20% methanol for 30 min, washed with PBS, and air-dried. Colonies of 30 cells were counted as positive. Results are normalized to percent clonogenic survival from untreated control cells. Statistical analysis of IC50 values were calculated from concentration-response curves using GraphPad Prism 5.0 (Graphpad Software, San Diego, Calif.), using with the equation: Y=Bottom+(Top−bottom)/1+10 Log EC50−X.
(§3) Compounds II-1, II-2, II-3, II-4, II-5, and II-6 were compared for their inhibitory effect on breast cancer clonogenic survival. Cells were treated with varying concentration of compound, ranging from 0.1 μM-20 μM for 10 days. […] At endpoint, cell colonies were fixed, stained and recorded as percent vehicle control.

MCF-7 cells [3] = assay: Clonogenic survival assay; type: cell-based, Human; conditions: Table 2, 0.1 μM-20 μM for 10 days, read-out: MCF-7 (IC50), clonogenic survival
Description: as §1, §2, §3

MCF-7TN-R cells [4] = assay: Clonogenic survival assay; type: cell-based, Human; conditions: Table 2, 0.1 μM-20 μM for 10 days, read-out: MCF-7-TNR (IC50), clonogenic survival
Description: as §1, §2, §3

[5] = tested on: MCF10A (normal breast epithelial) cells; assay: Proliferation assay in normal breast epithelial cells; type: cell-based; conditions: for effect on normal breast epithelial proliferation: MCF10A, even at 100 μM, 24 h
Description: MCF10A cells were treated with varying concentrations of drug (0.1-100 μM) for 24 h. The values are the mean±SE of four independent experiments.
The selectivity of compound II-3 and C8-ceramide to inhibit cell growth of cancer cells was determined by performing proliferation assays using MCF10A (normal breast epithelial) cells (FIG. 18).

MDA-MB-231 cells [6] = assay: Cellular sphingolipid species by lipidomics analysis; type: cell-based, Human; conditions: 10 μM, 24 h
Description: (§4) (A) MCF-7, (B) MDA-MB-231, and (C) MCF-7TN-R cells were treated with ceramide (10 μM) and II-3 (10 μM) for 24 h. The values are the mean±SE of two independent experiments. S2 Endogenous lipid levels were quantified by mass spectrometry (Lipidomics Core, Medical University of South Carolina) according to published methods. Briefly, cells were collected, fortified with internal standards and extracted with ethyl acetate/isopropyl alcohol. ESI/MS/MS analyses of sphingoid bases, sphingoid base 1-phosphates, ceramides, and sphingomyelins were performed on a Thermo Finnigan TSQ 7000 triple quadrupole mass spectrometer.
(§5) The effect of compound II-3 on endogenous sphingolipid levels was compared to C8-ceramide using Lipidomics Analysis (FIG. 19-21). Dihydrosphingosine is elevated following compound II-3 treatment, with almost a 50 fold increase in MCF-7TN-R cells. Sphingosine-1-phosphate, the proliferative metabolite of ceramide, decreased in all three cell lines. C8-ceramide had the opposite effect and increased sphingosine-1-phosphate levels.

MCF-7 cells [7] = assay: as above; type: cell-based, Human; conditions: 10 μM, 24 h
Description: as §4, §5

MCF-7TN-R cells [8] = assay: as above; type: cell-based, Human; conditions: 10 μM, 24 h
Description: as §4, §5

MDA-MB-231 cell line = assay: Proliferation assay; type: cell-based; conditions: Homo sapiens, FIG. 16, read-out: anti-proliferative IC50, MDA-MB-231
Description: (§6) The ability of compound II-3 to block proliferation as an anti-survival mechanism in addition to apoptosis was determined by measuring anti-proliferative effects.

MCF-7 cell line = assay: Proliferation assay; type: cell-based; conditions: Homo sapiens, MCF7; FIG. 15; read-out: anti-proliferative IC50, MCF-7
Description: as §6

MCF-7TN-R cells [9] = assay: Proliferation assay; type: cell-based; conditions: Homo sapiens; FIG. 17; read-out: anti-proliferative IC50, MCF-7TN-R
Description: as §6
Nineteen compounds were synthesized using fifteen benzaldehydes as starting material. […] These were tested as potential anti-proliferative agents in MCF-7TN-R cells, and the structure-activity relationships were studied using several parameters. […] In compounds containing a methyl group, a significant increase of the PAC (C) in o-substituted compound was detected, which may account for the increased anti-proliferation activity. Ortho-substituted analogs with electron withdrawing groups by induction can have beneficial effects, and PAC (C) can be a useful predictor of the structural property of the molecule.

pIC50 (MDA-MB-231 cell line) | pIC50 (MCF-7 cell line) | pIC50 (MCF-7TN-R cells [9]) | SMILES | fold induction in apoptosis (MCF-7 cells [1]; 24 hours) [fold] | pIC50 (MDA-MB-231 cells [2]) | pIC50 (MCF-7 cells [3]) | pIC50 (MCF-7TN-R cells [4]) | effect on normal breast epithelial proliferation [5] | Sphingosine-1-phosphate level (MDA-MB-231 cells [6]) | Sphingosine-1-phosphate level (MCF-7 cells [7]) | Sphingosine-1-phosphate level (MCF-7TN-R cells [8]) | fold induction at 9.4 µM (MCF-7 cells [1]; Homo sapiens, MCF7, 24 hours) | pIC50 (MDA-MB-231 cells [2]; Homo sapiens, MDA-MB-231, 240 h) | pIC50 (MCF-7 cells [3]; Homo sapiens, MCF7, 240 h) | pIC50 (MCF-7TN-R cells [4]; Homo sapiens, 240 h) | 100 μM (little effect in MCF10A) as fold of the IC50 value in chemoresistant cells ([5]; MCF10A versus chemoresistant cells) | Dihydrosphingosine fold increase (MCF-7TN-R cells [8]) [fold]
 |  |  | CCCCCCCCCCCCC/C=C/[C@@H](O)[C@H](CO)NC(=O)CCCCCCC [Compound C8-Cer, D-erythro N-octanoyl sphingosine, reference compound] | 5.0 | 5.52 | 5.38 | 5.07 | little effect | increased | increased | increased |  |  |  |  |  | 
5.74 | 5.35 | 5.92 | CCCCCCCCCCCCCCNC(=O)[C@H](CO)N=Cc1ccccc1 [II-3, (S)-2-(benzylideneamino)-3-hydroxy-N-tetradecylpropanamide] |  | 5.62 | 5.33 | 5.11 | little effect | decreased | decreased | decreased | 5.4 | 5.63 | 5.33 | 5.12 | greater than 50 fold | ~50
